A value given as a limit tells only on which side of the number the result lay.

In the assay the test system is NFκB. Description: NFκB-driven luciferase reporter in RAW 264.7 cells challenged with LPS. The assay is classed as cell-based, mouse. As to conditions: Mus musculus, RAW264.7, 200 ng/mL LPS for 3 hours, read-out: NFκB Inhibitory Activity, IC50 μM. How it is done:
RAW 264.7 cells transfected with an NFκB-driven luciferase reporter are plated in 96 well plates. Cells are treated with Vehicle (0.1% ethanol) or test compounds for 2 hours. As a positive control for inhibition of NFκB signaling, 6 wells are treated with 10 μM dexamethasone. Cells are then challenged with 200 ng/mL LPS for 3 hours in the presence of test compounds. A subset of wells treated with vehicle should remain unstimulated with LPS to determine the floor signal of the assay. NFκB driven luciferase activity is developed by addition of BriteLite luciferase kit (Perkin-Elmer) and measured using a Victor V plate reader. NFκB activity (luciferase activity) for each treatment was normalized to Vehicle wells treated with LPS (% NFκB Response). AlamarBlue was used to monitor cell viability to ensure that inhibition of luciferase signal was not a result of compound cytotoxicity.
RAW 264.7 cells stably expressing a 3×NF-κB response element-driven luciferase reporter were seeded into 96 well plates. After 18 hours, cells were pre-treated with compounds of the invention for 2 hours, and then stimulated with LPS (lipopolysaccharide, 200 ng/mL) or vehicle control for 3 h in the presence of the compounds of the invention. A set of six vehicle was left unstimulated with LPS in order to measure the assay floor. AlamarBlue viability dye (Invitrogen) was added to cells simultaneously with the delivery of LPS (final AlamarBlue concentration of 10%). After the 3 h incubation period with LPS, cell viability was measured by reading fluorescence (excitation 550 nm, emission 595 nm) with a Perkin Elmer Victor V plate reader. Then cell media was aspirated from each well. Luciferase signal was then developed by addition of the Britelite Plus reagent (Perkin Elmer). Luciferase activity was measured with the Perkin Elmer Victor V plate reader. NF-κB activity was expressed as a percent of the vehicle control wells (stimulated with LPS). Compounds were tested at 6 dose point titrations in triplicate to determine IC50 values.
For orientation: IC50 means the concentration that inhibits the measured activity by half. For `Nc1ccc(O)c(C(=O)O)c1` [Compound 5-ASA, 5-aminosalicylic acid, reference compound], the IC50 was > 200 µM. Consider `CC/C=C\C/C=C\C/C=C\C/C=C\C/C=C\C/C=C\CCC(=O)NCCN1C(=O)CC(SC[C@H](NC(=O)c2ccccc2O)C(=O)OC)C1=O` (stereo partly drawn) [Ih-11, (R)-methyl 3-(1-(2-(4Z,7Z,10Z,13Z,16Z,19Z)-docosa-4,7,10,13,16,19-hexaenamidoethyl)-2,5-dioxopyrrolidin-3-ylthio)-2-(2-hydroxybenzamido)propanoate], for which the IC50 was < 200 µM. The figure for `CC/C=C\C/C=C\C/C=C\C/C=C\C/C=C\C/C=C\CCC(=O)Nc1ccc(O)c(C(=O)OC)c1` [IIIb-1, methyl 5-docosa-4,7,10,13,16,19-hexaenamido-2-hydroxybenzoate] is < 200 µM; for `CC/C=C\C/C=C\C/C=C\C/C=C\C/C=C\C/C=C\CCC(=O)NC(C)CNC(=O)c1ccccc1O` (stereo not drawn) [Ih-6, N-(2-(4Z,7Z,10Z,13Z,16Z,19Z)-docosa-4,7,10,13,16,19-hexaenamidopropyl)-2-hydroxybenzamide] it is < 200 µM; for `CC/C=C\C/C=C\C/C=C\C/C=C\C/C=C\C/C=C\CCC(=O)NCC(C)(C)NC(=O)c1ccccc1O` [Compound I-4, N-(1-(4Z,7Z,10Z,13Z,16Z,19Z)-docosa-4,7,10,13,16,19-hexaenamido-2-methylpropan-2-yl)-2-hydroxybenzamide] it is < 200 µM. In the case of `CC/C=C\C/C=C\C/C=C\C/C=C\C/C=C\CCCC(=O)Nc1ccc(O)c(C(=O)O)c1` [IIIg-1, 2-hydroxy-5-(5Z,8Z,11Z,14Z,17Z)-icosa-5,8,11,14,17-pentaenamidobenzoic acid], the IC50 was < 200 µM. The figure for `CC/C=C\C/C=C\C/C=C\C/C=C\C/C=C\CCCC(=O)NCCNC(=O)c1cc(-c2ccc(F)cc2F)ccc1O` [Ih-10, 2′,4′-difluoro-4-hydroxy-N-(2-(5Z,8Z,11Z,14Z,17Z)-icosa-5,8,11,14,17-pentaenamidoethyl)biphenyl-3-carboxamide] is < 200 µM. `CC/C=C\C/C=C\C/C=C\C/C=C\C/C=C\C/C=C\CCC(=O)NCC(=O)Nc1ccc(O)c(C(=O)O)c1` [IIIf-1, 5-(2-(4Z,7Z,10Z,13Z,16Z,19Z)-docosa-4,7,10,13,16,19-hexaenamidoacetamido)-2-hydroxybenzoic acid]: the IC50 was > 200 µM. Regarding `CC/C=C\C/C=C\C/C=C\C/C=C\C/C=C\C/C=C\CCC(=O)NCCSSCCNC(=O)c1ccccc1O` [Compound I-2, N-(2-(2-(2-(4Z,7Z,10Z,13Z,16Z,19Z)-docosa-4,7,10,13,16,19-hexaenamidoethyl)disulfanyl)ethyl)-2-hydroxybenzamide], the IC50 was < 200 µM. With `CC/C=C\C/C=C\C/C=C\C/C=C\C/C=C\C/C=C\CCC(=O)NCCNC(=O)c1cc(-c2ccc(F)cc2F)ccc1O` [Ih-9, N-(2-(4Z,7Z,10Z,13Z,16Z,19Z)-docosa-4,7,10,13,16,19-hexaenamidoethyl)-2′,4′-difluoro-4-hydroxybiphenyl-3-carboxamide] the figure was < 200 µM. Consider `CC/C=C\C/C=C\C/C=C\C/C=C\C/C=C\C/C=C\CCC(=O)NCCN(C)C(=O)c1ccccc1O` [Ih-3, N-(2-(4Z,7Z,10Z,13Z,16Z,19Z)-docosa-4,7,10,13,16,19-hexaenamidoethyl)-2-hydroxy-N-methylbenzamide], for which the IC50 is < 200 µM.

`CC/C=C\C/C=C\C/C=C\C/C=C\C/C=C\C/C=C\CCC(=O)NC(Cc1ccccc1)C(=O)Oc1ccccc1C(=O)OCC` (stereo not drawn) [Ii-3, ethyl 2-(2-(4Z,7Z,10Z,13Z,16Z,19Z)-docosa-4,7,10,13,16,19-hexaenamido-3-phenylpropanoyloxy)benzoate]: the IC50 is < 200 µM. With `CC/C=C\C/C=C\C/C=C\C/C=C\C/C=C\C/C=C\CCC(=O)NCCNC(=O)c1ccc(C(F)(F)F)cc1O` [Ih-8, N-(2-(4Z,7Z,10Z,13Z,16Z,19Z)-docosa-4,7,10,13,16,19-hexaenamidoethyl)-2-hydroxy-4-(trifluoromethyl)benzamide] the figure was > 200 µM; with `CC/C=C\C/C=C\C/C=C\C/C=C\C/C=C\C/C=C\CCC(=O)NCCN(C)CCNC(=O)c1ccccc1O` [Compound I-7, N-(2-((2-(4Z,7Z,10Z,13Z,16Z,19Z)-docosa-4,7,10,13,16,19-hexaenamidoethyl)(methyl)amino)ethyl)-2-hydroxybenzamide], < 200 µM; with `CC/C=C\C/C=C\C/C=C\C/C=C\C/C=C\C/C=C\CCC(=O)NCC(C)NC(=O)c1ccccc1O` (stereo not drawn) [Ih-5, N-(1-(4Z,7Z,10Z,13Z,16Z,19Z)-docosa-4,7,10,13,16,19-hexaenamidopropan-2-yl)-2-hydroxybenzamide], < 200 µM. For `CC/C=C\C/C=C\C/C=C\C/C=C\C/C=C\C/C=C\CCC(=O)N1CCN(C(=O)c2ccccc2O)CC1` [Ih-2, (4Z,7Z,10Z,13Z,16Z,19Z)-1-(4-(2-hydroxybenzoyl)piperazin-1-yl)docosa-4,7,10,13,16,19-hexaen-1-one], the IC50 is > 200 µM. In the case of `CC/C=C\C/C=C\C/C=C\C/C=C\C/C=C\C/C=C\CCC(=O)NC(Cc1ccccc1)C(=O)Nc1ccc(O)c(C(=O)O)c1` (stereo not drawn) [IIIf-2, 5-(2-(4Z,7Z,10Z,13Z,16Z,19Z)-docosa-4,7,10,13,16,19-hexaenamido-3-phenylpropanamido)-2-hydroxybenzoic acid], the IC50 is > 200 µM. Regarding `CC/C=C\C/C=C\C/C=C\C/C=C\C/C=C\C/C=C\CCC(=O)NCCOCCNC(=O)c1ccccc1O` [Compound I-3, N-(2-(2-(4Z,7Z,10Z,13Z,16Z,19Z)-docosa-4,7,10,13,16,19-hexaenamidoethoxy)ethyl)-2-hydroxybenzamide], the IC50 is < 200 µM. Take `CC/C=C\C/C=C\C/C=C\C/C=C\C/C=C\C/C=C\CCC(=O)NC(CC(C)C)C(=O)Oc1ccccc1C(=O)OCC` (stereo not drawn) [Compound I-1, ethyl 2-(2-(4Z,7Z,10Z,13Z,16Z,19Z)-docosa-4,7,10,13,16,19-hexaenamido-4-methylpentanoyloxy)benzoate]: the half-maximal inhibitory concentration (IC50) was < 200 µM. With `CC/C=C\C/C=C\C/C=C\C/C=C\C/C=C\C/C=C\CCC(=O)NCCNC(=O)c1ccccc1O` [Ih-1, N-(2-(4Z,7Z,10Z,13Z,16Z,19Z)-docosa-4,7,10,13,16,19-hexaenamidoethyl)-2-hydroxybenzamide] the figure was < 200 µM; with `CC/C=C\C/C=C\C/C=C\C/C=C\C/C=C\C/C=C\CCC(=O)NC(CC(C)C)C(=O)Oc1ccc(-c2ccc(F)cc2F)cc1C(=O)OCC` (stereo not drawn) [Ii-4, ethyl 4-(2-(4Z,7Z,10Z,13Z,16Z,19Z)-docosa-4,7,10,13,16,19-hexaenamido-4-methylpentanoyloxy)-2′,4′-difluorobiphenyl-3-carboxylate], > 200 µM. The figure for `CC/C=C\C/C=C\C/C=C\C/C=C\C/C=C\C/C=C\CCC(=O)NC(CC(C)C)C(=O)Oc1cc(C(F)(F)F)ccc1C(=O)OCC` (stereo not drawn) [Ii-5, ethyl 2-(2-(4Z,7Z,10Z,13Z,16Z,19Z)-docosa-4,7,10,13,16,19-hexaenamido-4-methylpentanoyloxy)-4-(trilluoromethyl)benzoate] is < 200 µM. `CC/C=C\C/C=C\C/C=C\C/C=C\C/C=C\C/C=C\CCC(=O)NC(CC(C)C)C(=O)Nc1ccc(O)c(C(=O)O)c1` (stereo not drawn) [III-6, 5-(2-(4Z,7Z,10Z,13Z,16Z,19Z)-docosa-4,7,10,13,16,19-hexaenamido-4-methylpentanamido)-2-hydroxybenzoic acid]: the IC50 is < 200 µM. Take `CC/C=C\C/C=C\C/C=C\C/C=C\C/C=C\C/C=C\CCC(=O)NC(C)C(C)NC(=O)c1ccccc1O` (stereo not drawn) [Ih-7, N-(3-(4Z,7Z,10Z,13Z,16Z,19Z)-docosa-4,7,10,13,16,19-hexaenamidobutan-2-yl)-2-hydroxybenzamide]: the IC50 is < 200 µM.

In the case of `CC/C=C\C/C=C\C/C=C\C/C=C\C/C=C\C/C=C\CCC(=O)NCCCOC(=O)c1ccccc1OC(C)=O` [Ic-1, 3-(4Z,7Z,10Z,13Z,16Z,19Z)-docosa-4,7,10,13,16,19-hexaenamidopropyl 2-acetoxybenzoate], the IC50 was > 200 µM. The figure for `CC/C=C\C/C=C\C/C=C\C/C=C\C/C=C\C/C=C\CCC(=O)Nc1cccc(C(=O)O)c1` [Compound 17, 3-(4Z,7Z,10Z,13Z,16Z,19Z)-docosa-4,7,10,13,16,19-hexaenamidobenzoic acid] is < 200 µM; for `CC/C=C\C/C=C\C/C=C\C/C=C\C/C=C\C/C=C\CCC(=O)O` [DHA, docosahexaenoic acid, reference compound] it is > 200 µM.

As to `CC/C=C\C/C=C\C/C=C\C/C=C\C/C=C\C/C=C\CCC(=O)OC(C)OC(=O)c1ccccc1OC(C)=O` (stereo not drawn) [Ic-12, 1-((4Z,7Z,10Z,13Z,16Z,19Z)-docosa-4,7,10,13,16,19-hexaenoyloxy)ethyl 2-acetoxybenzoate], the IC50 is < 200 µM.

Take `CC/C=C\C/C=C\C/C=C\C/C=C\C/C=C\C/C=C\CCC(=O)Oc1cc(C(F)(F)F)ccc1C(=O)OCC` [VIc-3, ethyl 2-((4Z,7Z,10Z,13Z,16Z,19Z)-docosa-4,7,10,13,16,19-hexaenoyloxy)-4-(trilluoromethyl)benzoate]: the IC50 is < 200 µM. As for `CC/C=C\C/C=C\C/C=C\C/C=C\C/C=C\CCCC(=O)NCCNC(=O)c1ccccc1O` [Ih-14], the IC50 is < 200 µM.

(Values after patent US9085527B2, “Fatty acid acylated salicylates and their uses” (Catabasis Pharmaceuticals, Inc., priority 2008, dated 2015).)
